These results are taken from US11926596B2, “Inhibitors of Rho associated coiled-coil containing protein kinase” (KADMON CORPORATION, LLC, priority 2017, dated 2024).

Structures are written as SMILES.

Test [1] concerns phospho-myosin light chains (ppMlc, Thr18/Ser19) in A7R5 cells. The experiment in a line: A7R5 in-cell ELISA, phospho-myosin light chain. The format is cell-based, rat. Conditions: Rattus norvegicus, A7R5 cells; for IC50: 1.5 h, 90 min, read-out: pMLC IC50 A7R5. The method, then:
Determination of compounds ROCK inhibitory activity in A7R5 cells: rat aortic smooth muscle cell line A7R5 cells were maintained and treated in DMEM medium with 10% of fetal bovine serum. Cells were seeded with density of 5,000 cells/well in 96-well plates for 24 hours and subsequently treated 90 min with testing compounds. Cells were then fixed and processed according to the In-Cell ELISA Colorimetric Detection Kit manual (Thermo Scientific). Cellular phospho-myosin light chains (ppMlc, Thr18/Ser19) levels were determined after treatments of DMSO control or test compounds using the In-Cell ELISA kit. The percent inhibition rate was calculated by applying the data obtained with 1 μM (or 10 μM) compound treatment to the formula, [1-(compound/DMSO)]×100%. ppMlc data obtained with 9 points 2-fold serial dilution of compounds were applied to the nonlinear regression curve fit function of the GraphPad Prism software to calculate the In cell IC50s.
A7R5 cells were treated with 9 points 2 fold serial dilution of compounds and ppMlc (T18/S19) levels were determined in order to calculate cellular IC50s of the compounds.
Two steps of measurements were adopted for pMLC/A7R5 IC50. Percent inhibition rates were calculated with a single dose (1 μM or 10 μM) compounds treatment to screen for active compounds and then cellular IC50s were measured only in compounds that have over 50% of inhibition rates.
(In an ELISA, binding on a coated surface is turned into a signal by an enzyme label.)

In test [2] the target is T1, recombinant ROCK2 (amino acids 1-552) (Homo sapiens, UniProt O75116).
T1 construct: ROCK2 (amino acids 1-552) proteins were purchased from ThermoFisher Scientific; purchased ThermoFisher Scientific
The experiment in a line: Z'-lyte kinase assay, ROCK2. In kind it is biochemical. The method, then:
(§1) Determination of compounds ROCK inhibitory activity in vitro (Z'lyte assay): recombinant ROCK1 (amino acids 1-535) and ROCK2 (amino acids 1-552) proteins were purchased from ThermoFisher Scientific. Compounds activities were measured by Z′-lyte kinase kit (ThermoFisher Scientific) and IC50s were calculated.
(§2) Table 2, below, provides in vitro and cellular inhibition of ROCKs by compounds of the invention. Compounds activities were measured by Z′-lyte kinase kit (ThermoFisher Scientific). […] IC50s were calculated using the GraphPad Prism software with kinase activities data that were collected from points 9 serial dilution of compounds treatment. The ROCK inhibition in A7R5 cells and NIH3T3 (Acta2-Luc) cells was performed as described above.

Test [3] has as its target T2, recombinant ROCK1 (amino acids 1-535) (Homo sapiens, UniProt Q13464).
T2 construct: recombinant ROCK1 (amino acids 1-535) and ROCK2; purchased ThermoFisher Scientific
The experiment in a line: Z'-lyte kinase assay, ROCK1. In kind it is biochemical. The note with it: for inhibition at 3 µM: read-out: ROCK1 % inh. The method, then: as §1, §2

T2 sequence (Q13464 1-535): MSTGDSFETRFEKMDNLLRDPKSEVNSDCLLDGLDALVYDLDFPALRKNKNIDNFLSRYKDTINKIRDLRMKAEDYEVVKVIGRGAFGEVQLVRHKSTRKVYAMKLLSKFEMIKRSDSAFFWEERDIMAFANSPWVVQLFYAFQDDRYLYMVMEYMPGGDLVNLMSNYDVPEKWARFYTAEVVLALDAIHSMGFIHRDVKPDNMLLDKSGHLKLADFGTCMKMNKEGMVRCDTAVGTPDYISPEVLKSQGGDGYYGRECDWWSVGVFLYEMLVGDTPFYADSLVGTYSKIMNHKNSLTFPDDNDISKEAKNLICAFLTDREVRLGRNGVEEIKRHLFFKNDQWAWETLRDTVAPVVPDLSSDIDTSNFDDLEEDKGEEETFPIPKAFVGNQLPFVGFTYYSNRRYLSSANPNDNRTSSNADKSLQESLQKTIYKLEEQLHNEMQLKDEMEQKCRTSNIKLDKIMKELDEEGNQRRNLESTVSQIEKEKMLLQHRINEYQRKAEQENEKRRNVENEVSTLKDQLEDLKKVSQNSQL
T1 sequence (O75116 1-552): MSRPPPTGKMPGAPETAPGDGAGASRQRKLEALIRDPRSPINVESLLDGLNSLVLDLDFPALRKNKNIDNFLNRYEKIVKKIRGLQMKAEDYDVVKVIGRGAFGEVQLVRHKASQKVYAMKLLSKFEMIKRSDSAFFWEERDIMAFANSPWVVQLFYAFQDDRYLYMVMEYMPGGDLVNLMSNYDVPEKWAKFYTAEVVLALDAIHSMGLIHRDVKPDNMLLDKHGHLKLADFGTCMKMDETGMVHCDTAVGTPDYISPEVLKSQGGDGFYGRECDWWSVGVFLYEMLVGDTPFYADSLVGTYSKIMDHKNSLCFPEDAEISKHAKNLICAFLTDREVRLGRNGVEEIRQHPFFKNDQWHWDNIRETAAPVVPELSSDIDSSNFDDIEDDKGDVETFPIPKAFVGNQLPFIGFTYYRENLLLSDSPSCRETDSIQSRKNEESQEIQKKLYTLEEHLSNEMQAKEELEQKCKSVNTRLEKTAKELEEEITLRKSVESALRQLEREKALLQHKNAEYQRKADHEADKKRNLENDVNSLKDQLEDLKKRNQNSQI

`CNC(C(=O)Nc1ccc2[nH]ncc2c1)c1ccccn1` (stereo not shown) [Example 40, N-(1H-indazol-5-yl)-2-(methylamino)-2-(pyridin-2-yl)acetamide]: the inhibition at 10 µM in test [1] (read-out: pMLC % inh A7R5) stood at 37%. The IC50 in test [2] turned out to be 453 nM; in test [3], 143 nM.

As to `CCNC(C(=O)Nc1ccc2[nH]ncc2c1)c1ccccc1` (stereo not shown) [Example 21, 2-(ethylamino)-N-(1H-indazol-5-yl)-2-phenylacetamide], the IC50 in test [1] amounted to 2390 nM. The inhibition at 3 µM in test [2] (read-out: ROCK2 % inh) amounted to 95.8%; in test [3] it was 91.5%.

`CNC(C(=O)Nc1ccc2[nH]ncc2c1)c1cccnc1` (stereo not shown) [Example 39, N-(1H-indazol-5-yl)-2-(methylamino)-2-(pyridin-3-yl)acetamide]: the IC50 in test [1] is 4200 nM; in test [2], 213 nM; in test [3] it was 250 nM.

`O=C(Nc1ccc2[nH]ncc2c1)C1CNc2ccccc2C1` (stereo not shown) [Example 3, N-(1H-indazol-5-yl)-1,2,3,4-tetrahydroquinoline-3-carboxamide]: the inhibition at 1 µM in test [1] (@ 1 μM, read-out: pMLC % inh A7R5) worked out at 25%. The inhibition at 3 µM in test [2] (read-out: ROCK2 % inh) and in test [3] was 0% throughout.

`Cc1ccc(C(NC(C)C)C(=O)Nc2ccc3[nH]ncc3c2)cc1` (stereo not shown) [Example 29, N-(1H-indazol-5-yl)-2-(isopropylamino)-2-(p-tolyl)acetamide]: the IC50 in test [1] worked out at 934 nM; in test [2], 6.3 nM; in test [3], 65.7 nM. Further, the inhibition at 3 µM is 98.8% in test [2] (read-out: ROCK2 % inh) and 99% in test [3].

In the case of `CC(C)NC(C(=O)Nc1ccc2[nH]ncc2c1)c1ccc(F)cc1` (stereo not shown) [Example 20, 2-(4-fluorophenyl)-N-(1H-indazol-5-yl)-2-(isopropylamino)acetamide], the IC50 amounted to 2510 nM in test [1], 152 nM in test [2] and 561 nM in test [3]. Besides, the inhibition at 3 µM in test [2] (read-out: ROCK2 % inh) worked out at 94.6%; in test [3], 18.4%.

`Cc1ccc(C(NC(C)(C)C)C(=O)Nc2ccc3[nH]ncc3c2)cc1` (stereo not shown) [Example 38, 2-(tert-butylamino)-N-(1H-indazol-5-yl)-2-(p-tolyl)acetamide]: the IC50 in test [1] was found to be 1340 nM; in test [2], 27.4 nM; in test [3], 61.4 nM. The inhibition at 3 µM in test [2] (read-out: ROCK2 % inh) and in test [3] was 100% throughout.

As for `CCNC(C(=O)Nc1ccc2[nH]ncc2c1)c1ccc(F)cc1` (stereo not shown) [Example 23, 2-(ethylamino)-2-(4-fluorophenyl)-N-(1H-indazol-5-yl)acetamide], the IC50 in test [1] turned out to be 1060 nM; in test [2], 43 nM; in test [3] it was 495 nM. Also, the results for the inhibition at 3 µM in test [2] (read-out: ROCK2 % inh) and in test [3] were 95.3% and 94.3%, respectively.

For `CC(C)(C)NC(C(=O)Nc1ccc2[nH]ncc2c1)c1ccccc1` (stereo not shown) [Example 37, 2-(tert-butylamino)-N-(1H-indazol-5-yl)-2-phenylacetamide], the IC50 in test [1] came to 2600 nM; in test [2], 74.3 nM; in test [3], 98.1 nM. Besides, the values for the inhibition at 3 µM in test [2] (read-out: ROCK2 % inh) and in test [3] were 98.8% and 99%, respectively.

In the case of `CC(C)NC(C(=O)Nc1ccc2[nH]ncc2c1)c1ccccc1` (stereo not shown) [Example 22, N-(1H-indazol-5-yl)-2-(isopropylamino)-2-phenylacetamide], the IC50 in test [1] is 1800 nM. The figures for the inhibition at 3 µM in test [2] (read-out: ROCK2 % inh) and in test [3] were 96.7% and 94.3%, respectively.

Take `O=C(Nc1ccc2[nH]ncc2c1)C1Cc2ccccc2CN1` (stereo not shown) [Example 4, N-(1H-indazol-5-yl)-1,2,3,4-tetrahydroisoquinoline-3-carboxamide]: in test [1] (read-out: pMLC % inh A7R5), the inhibition at 10 µM was 18%. Besides, the IC50 in test [2] and in test [3] was over 1000 nM in each case.

Take `COc1ccc(C(N)C(=O)Nc2ccc3[nH]ncc3c2)cc1` (stereo not shown) [Comp4, reference compound]: the IC50 in test [1] was 6160 nM. Moreover, in test [2] (@ 1 μM, read-out: ROCK2 % inh), the inhibition at 1 µM was 96.5%. The inhibition at 3 µM in test [3] was 95.8%.

The term IC50 denotes the midpoint of a concentration-inhibition curve.
